Measurements taken from patent US20230110378A1, “MONOBACTAM COMPOUND AND USE THEREOF” (EVOPOINT BIOSCIENCES CO., LTD., priority 2019, published 2023).
Converted amounts (≈) assume the structure as drawn.

Assays:
Test in all cases: Minimum inhibitory concentration (broth microdilution, CLSI)
Type in all cases: cell-based
[1] = tested on: Proteus mirabilis HDBPM 40; settings: HDBPM40
Description: (§1) 103 bacterial strains used for the minimum inhibitory concentration test were frozen in a −80° C. ULT freezer and thawed 2 days before use. A small amount of frozen microorganism bacteria were scraped using a sterile inoculating loop, streaked onto a suitable solid culture dish for inoculation, and then cultured for about 20 h at 35 t 2° C. in a normal incubator. • Proteus mirabilis HDBPM 40: MA, normal atmospheric environment • The remaining 102 strains of bacteria: TSA, normal atmospheric environment
(§2) 5-10 colonies with similar morphology were picked from the culture dish using a sterile inoculating loop and then re-streaked onto a corresponding solid culture dish. Then the dish was incubated in a normal incubator at 35 t 2° C. for about 20 h.
(§3) 5-10 single microbial colonies were picked from the solid culture dish, resuspended in 500 μL of sterile normal saline (0.9% NaCl), and adjusted to an OD600 of about 0.15 with a spectrophotometer.
(§4) The bacteria were then diluted 300-fold with 1.02×CAMHB to an inoculation concentration of 2×10^5 CFU/mL.
(§5) • There were a total of 3 assay plate patterns, one of which was used for each assay. • 8 rows of the assay plate (rows A-H) were for 8 test compounds, respectively. The highest test concentration of the compounds was 16, 32 or 64 μg/mL, and each compound was diluted 2-fold. • Growth control (GC): a medium containing microbial inoculum (1.02×CAMHB) and dimethylsulfoxide (DMSO) but no compound.
(§6) The test and reference compounds were dissolved in DMSO or H2O to prepare 6.4 mg/mL stock solutions. The stock solutions were diluted to prepare standby solutions with certain concentrations, and the volumes of the standby solutions were determined according to the experimental design. Corresponding volumes of the standby solutions were transferred to the starting wells of a dilution plate (A1-H1), and half the starting-well volume of DMSO to the other wells. Each compound was diluted 2-fold sequentially from column 1 to column 11 (e.g., transferring 30 μL of DMSO to columns 2-12 first, then pipetting 30 μL of the compounds from column 1 to column 2 and mixing them well, then pipetting 30 μL of the compounds from column 2 to column 3 and mixing them well, then pipetting 30 μL of the compounds from column 3 to column 4 and mixing them well, and so on to column 11).
(§7) 1 or 2 μL of the compounds and DMSO were transferred from the compound plate to corresponding wells of the assay plates.
(§8) 98 μL of corresponding bacterial inocula were added to the assay plates.
(§9) After addition, the assay plates were covered with sterile covers. The mixtures in the assay plates were centrifuged in a centrifuge at 800 rpm for 30 s, mixed well on a microplate shaker at 400 rpm for 1 min, and incubated in a normal incubator at 35 t 2° C. for 20-24 h.
(§10) The assay plates were placed on a plate reading device, and the speculum was adjusted to observe and record the growth condition of bacteria in each well. In the mean time, each assay plate was photographed with QCount system.
(§11) The minimum inhibitory concentration of each compound was recorded by reference to guidelines from the Clinical and Laboratory Standards Institute.
(§12) The minimum inhibitory concentrations of the compounds against experimental strains were tested in this study by reference to the medium microdilution method as indicated by the Clinical and Laboratory Standards Institute. Compounds were diluted two-fold in 96-well plates from the highest detection concentration of 16, 32 or 64 μg/mL. The bacterial inocula in the assay plates were thawed from corresponding medium plates and diluted in 1.02×CAMHB, while growth controls (GC wells) were set up in the assay plates. The minimum inhibitory concentration of each compound against different bacteria was observed and recorded after the assay plates were incubated in a normal incubator at 35 t 2° C. for about 20 h. The minimum inhibitory concentration values for the different compounds are listed in the list below.

[2] = tested on: Escherichia coli HDBEC 30048; settings: HDBEC30048
Description: as §1, §2, §3, §4, §5, §6, §7, §8, §9, §10, §11, §12

[3] = tested on: Escherichia coli HDBEC 30008; settings: HDBEC30008
Description: as §1, §2, §3, §4, §5, §6, §7, §8, §9, §10, §11, §12

[4] = tested on: Pseudomonas aeruginosa HDBPA 5679; settings: HDBPA5679
Description: as §1, §2, §3, §4, §5, §6, §7, §8, §9, §10, §11, §12

[5] = tested on: Escherichia coli HDBEC 30016; settings: HDBEC30016
Description: as §1, §2, §3, §4, §5, §6, §7, §8, §9, §10, §11, §12

[6] = tested on: Klebsiella pneumoniae HDBKP 9153; settings: HDBKP9153
Description: as §1, §2, §3, §4, §5, §6, §7, §8, §9, §10, §11, §12

[7] = tested on: Klebsiella pneumoniae HDBKP 9249; settings: HDBKP9249
Description: as §1, §2, §3, §4, §5, §6, §7, §8, §9, §10, §11, §12

[8] = tested on: Klebsiella pneumoniae HDBKP 30006; settings: HDBKP30006
Description: as §1, §2, §3, §4, §5, §6, §7, §8, §9, §10, §11, §12

[9] = tested on: Enterobacter cloacae HDBECL 30030; settings: HDBECL30030
Description: as §1, §2, §3, §4, §5, §6, §7, §8, §9, §10, §11, §12

Which results are given for `C[n+]1cc(-c2ncc(C(=O)NC[C@@H]3[C@H](NC(=O)/C(=N\OC(C)(C)C(=O)O)c4csc(N)n4)C(=O)N3S(=O)(=O)O)s2)cn1CCCNC(=N)N` [Compound I-11]?
MIC [1]: < 4 µg/mL; MIC [2]: 8 to 16 µg/mL; MIC [3]: < 4 µg/mL; MIC [4]: > 16 µg/mL; MIC [5]: 8 to 16 µg/mL; MIC [6]: < 4 µg/mL; MIC [7]: < 4 µg/mL; MIC [8]: < 4 µg/mL; MIC [9]: < 4 µg/mL

With `C[n+]1cc(-c2ncc(C(=O)NC[C@@H]3[C@H](NC(=O)/C(=N\OC(C)(C)C(=O)O)c4csc(N)n4)C(=O)N3S(=O)(=O)O)s2)cn1CCCNC(=O)c1cc(=O)c(O)cn1O` [Compound I-12] as the molecule, how does the MIC [1] read?
Its MIC is less than 4 µg/mL.

And the MIC [2]?
Its MIC is less than 4 µg/mL.

And the MIC [3]?
Its MIC is less than 4 µg/mL.

What about the MIC [4] of the same molecule?
Its MIC is less than 4 µg/mL.

What about the MIC [5] of the same molecule?
The MIC was less than 4 µg/mL.

What about the MIC [6] of the same molecule?
Its MIC is less than 4 µg/mL.

And the MIC [7]?
The MIC was 4 to 8 µg/mL.

And the MIC [8]?
Its MIC is 8 to 16 µg/mL.

What about the MIC [9] of the same molecule?
Its MIC is less than 4 µg/mL.

Which results are given for `C[n+]1cc(C(=O)NC[C@@H]2[C@H](NC(=O)/C(=N\OC(C)(C)C(=O)O)c3csc(N)n3)C(=O)N2S(=O)(=O)O)sc1-c1cnn(CC(N)CN)c1` (stereo partly drawn) [Compound I-13]?
MIC [1]: < 4 µg/mL; MIC [2]: > 16 µg/mL; MIC [3]: 8 to 16 µg/mL; MIC [4]: > 16 µg/mL; MIC [5]: > 16 µg/mL; MIC [6]: 4 to 8 µg/mL; MIC [7]: < 4 µg/mL; MIC [8]: 8 to 16 µg/mL; MIC [9]: 4 to 8 µg/mL

For `CC(C)(O/N=C(\C(=O)N[C@@H]1C(=O)N(S(=O)(=O)O)[C@@H]1CNC(=O)c1cc([C@@H]2CCN(C(=O)c3cc(=O)c(O)cn3O)C2)no1)c1nsc(N)n1)C(=O)O` [Compound I-14], which MIC [1] is on record?
The MIC was less than 4 µg/mL.

And the MIC [2]?
Its MIC is less than 4 µg/mL.

And the MIC [3]?
The MIC was less than 4 µg/mL.

And the MIC [4]?
The MIC was less than 4 µg/mL.

What about the MIC [5] of the same molecule?
Its MIC is greater than 16 µg/mL.

What about the MIC [6] of the same molecule?
Its MIC is less than 4 µg/mL.

And the MIC [7]?
The MIC was greater than 16 µg/mL.

And the MIC [8]?
Its MIC is greater than 16 µg/mL.

What about the MIC [9] of the same molecule?
Its MIC is less than 4 µg/mL.

With `C[n+]1cc(-c2ncc(C(=O)NC[C@@H]3[C@H](NC(=O)/C(=N\OC(C)(C)C(=O)O)c4nsc(N)n4)C(=O)N3S(=O)(=O)O)s2)cn1CC(N)CN` (stereo partly drawn) [Compound I-15] as the molecule, how does the MIC [1] read?
Its MIC is less than 4 µg/mL.

And the MIC [2]?
Its MIC is greater than 16 µg/mL.

What about the MIC [3] of the same molecule?
Its MIC is 4 to 8 µg/mL.

And the MIC [4]?
Its MIC is greater than 16 µg/mL.

And the MIC [5]?
The MIC was greater than 16 µg/mL.

What about the MIC [6] of the same molecule?
The MIC was greater than 16 µg/mL.

And the MIC [7]?
The MIC was greater than 16 µg/mL.

And the MIC [8]?
Its MIC is greater than 16 µg/mL.

And the MIC [9]?
Its MIC is 4 to 8 µg/mL.

Which results are given for `C[n+]1cc(-c2ncc(C(=O)NC[C@@H]3[C@H](NC(=O)/C(=N\OC(C)(C)C(=O)O)c4nsc(N)n4)C(=O)N3S(=O)(=O)O)s2)cn1CCCN` [Compound I-16]?
MIC [1]: < 4 µg/mL; MIC [2]: > 16 µg/mL; MIC [3]: 8 to 16 µg/mL; MIC [4]: > 16 µg/mL; MIC [5]: > 16 µg/mL; MIC [6]: > 16 µg/mL; MIC [7]: 8 to 16 µg/mL; MIC [8]: > 16 µg/mL; MIC [9]: > 16 µg/mL

Which MIC [1] does the source give for `Nc1nc(/C(=N/OC2(C(=O)O)CC2)C(=O)N[C@H]2C(=O)N(S(=O)(=O)O)[C@H]2CNC(=O)c2cc([C@@H]3CCN(C(=O)c4cc(=O)c(O)cn4O)C3)no2)cs1` [Compound I-17] here?
Its MIC is less than 4 µg/mL.

And the MIC [2]?
Its MIC is less than 4 µg/mL.

What about the MIC [3] of the same molecule?
Its MIC is less than 4 µg/mL.

And the MIC [4]?
The MIC was less than 4 µg/mL.

What about the MIC [5] of the same molecule?
Its MIC is 4 to 8 µg/mL (≈ 5.22 to 10.4 µM).

And the MIC [6]?
Its MIC is less than 4 µg/mL.

And the MIC [7]?
Its MIC is less than 4 µg/mL.

And the MIC [8]?
The MIC was greater than 16 µg/mL.

What about the MIC [9] of the same molecule?
Its MIC is less than 4 µg/mL.

How did the MIC [1] turn out when `CC(C)(O/N=C(\C(=O)N[C@H]1C(=O)N(S(=O)(=O)O)[C@H]1CNC(=O)c1cc([C@@H]2CCN(C(=O)c3ccc(O)c(O)c3Cl)C2)no1)c1csc(N)n1)C(=O)O` [Compound I-18] was run?
The MIC was less than 4 µg/mL.

And the MIC [2]?
Its MIC is less than 4 µg/mL.

And the MIC [3]?
Its MIC is less than 4 µg/mL.

And the MIC [4]?
The MIC was 4 to 8 µg/mL (≈ 5.09 to 10.2 µM).

And the MIC [5]?
Its MIC is 8 to 16 µg/mL (≈ 10.2 to 20.4 µM).

And the MIC [6]?
Its MIC is 4 to 8 µg/mL (≈ 5.09 to 10.2 µM).

What about the MIC [7] of the same molecule?
Its MIC is greater than 16 µg/mL.

And the MIC [8]?
Its MIC is greater than 16 µg/mL.

What about the MIC [9] of the same molecule?
Its MIC is less than 4 µg/mL.

Which MIC [1] does the source give for `CC(C)(O/N=C(\C(=O)N[C@H]1C(=O)N(S(=O)(=O)O)[C@H]1CNC(=O)c1cc([C@@H]2CCN(C(=O)c3cc(Cl)c(O)c(O)c3Cl)C2)no1)c1csc(N)n1)C(=O)O` [Compound I-19] here?
Its MIC is less than 4 µg/mL.

What about the MIC [2] of the same molecule?
The MIC was less than 4 µg/mL.

What about the MIC [3] of the same molecule?
Its MIC is less than 4 µg/mL.

What about the MIC [4] of the same molecule?
The MIC was 4 to 8 µg/mL (≈ 4.88 to 9.76 µM).

And the MIC [5]?
The MIC was 4 to 8 µg/mL (≈ 4.88 to 9.76 µM).

What about the MIC [6] of the same molecule?
The MIC was less than 4 µg/mL.

And the MIC [7]?
The MIC was 8 to 16 µg/mL (≈ 9.76 to 19.5 µM).

And the MIC [8]?
The MIC was greater than 16 µg/mL.

And the MIC [9]?
Its MIC is less than 4 µg/mL.
